EP0578644B1, “ANTIBIOTIC A 40926 ESTER DERIVATIVES” (GRUPPO LEPETIT S.p.A., priority 1991, dated 1992)

Experiments:
[1] = tested on: Streptococcus pyogenes C203; experiment: mouse septicemia (in vivo test); conditions: CD-1 mice infected intraperitoneally; antibiotics administered subcutaneously immediately after infection; calculated on the 7th day from surviving animals (Spearman and Kaerber)
Method: In these in vivo tests control and treatment groups contained five CD-1 mice (Charles River) weighting 18-22 g. They were infected intraperitoneally with 0.5 ml of bacterial suspension prepared by diluting an overnight culture of Streptococcus pyogenes C203 with sterile peptonized saline. Inocula were adjusted so that untreated animals died of septicemia within 48 hours. Antibiotics were administered subcutaneously immediately after infection. On the 7th day, the ED50 in mg/kg was calculated by the method of Spearman and Kaerber (D.J. Finney, "Statistical Methods in Biological Assay", Griffin, page 524, 1952) from the percentages of surviving animals at each dose. The results of the in vivo testing of representative compounds of the invention are summmarized in Table II below: Table II

[2] = tested on: coagulase-negative staphylococci; experiment: in vitro antibacterial activity (MIC, microbroth dilution); type: cell-based; conditions: compared with the parent compounds (X vs I and VIII vs VII)

| Compound | ED50 [1] [mg/kg] | in vitro activity against coagulase-negative staphylococci [2] |
| --- | --- | --- |
| CN[C@H]1C(=O)N[C@@H]2Cc3ccc(cc3)Oc3cc4cc(c3O)Oc3ccc(cc3Cl)[C@@H](O)[C@@H]3NC(=O)[C@H](NC(=O)[C@@H]4NC(=O)[C@@H](NC2=O)c2cc(cc(O)c2Cl)Oc2cc1ccc2O)c1ccc(O)c(c1)-c1c(O)cc(O)cc1[C@@H](C(=O)O)NC3=O [A 40926 aglycone, reference compound] | 6.2 |  |
| Demannosyl A 40926 complex 6^B-(2-bromoethyl) ester [compound VIII] | 0.31 | better in vitro activity |
| O^42-demannosyl A 40926 6^B-methyl ester [compound X] | 0.31 | better in vitro activity |
| antibiotic A 40926 complex 6^B-(2-hydroxyethyl) ester [compound V] | 0.18 |  |
| antibiotic A 40926 complex 6^B-monoethyl ester [compound II] | 0.23 |  |
| antibiotic A 40926 complex 6^B-monomethyl ester [compound I] | 0.18 |  |
